Assay results reported in patent US4253998A, “Peptides related to somatostatin” (American Home Products Corporation, priority 1979, dated 1981).
Structures can show the parent of a compound that is named as a salt. Bridge positions count the residues as written; N and C are the ends. Square brackets hold non-standard residues; d marks the D form. Peptide text beside a SMILES is read from it.

Key:
Type in all cases: in vivo, rat
growth hormone (GH) [1] = assay: Inhibition of growth hormone secretion in arginine-treated, pentobarbital-anesthetized rats (radioimmunoassay)
Experimental: (§1) Male albino rats are divided into two groups (e.g. nine rats per group). Each animal is administered sodium pentobarbital (Nembutal), I. P., at a dose of 50 mg/kg. Fifteen minutes later, one group received a S. C. injection of the test compound in saline (typically 5 to 200 μg/kg.), and the other group (control) receives saline alone. Ten minutes later, each animal is given a 0.5 ml. injection of arginine (300 mg/ml., pH 7.2) into the heart. Five minutes after receipt of the arginine, the animals are decapitated and blood is collected into Trasylol-EDTA. An appropriate aliquot of each sample is assayed for GH, glucagon, and insulin by radioimmunossay. GH is determined by the method of Sinha et al., Endocrinol., 91, 784 (1972); glucagon is determined by the method of Caloona and Unger, "Methods of Hormone Radioimmunoassay," Jaffe et al., Ed., Academic Press, New York, 1974, pages 317-330; and insulin is determined by the method of Hales and Randle, Biochem. J., 88, 137 (1963). The blood concentrations of growth hormone, glucagon, and insulin for the animals given the test compound are compared by standard statistical methods to the blood concentrations for the control group.

insulin = assay: Inhibition of insulin secretion in arginine-treated, pentobarbital-anesthetized rats (radioimmunoassay)
Experimental: as §1

glucagon = assay: Inhibition of glucagon secretion in arginine-treated, pentobarbital-anesthetized rats (radioimmunoassay)
Experimental: as §1

growth hormone (GH) [2] = assay: Prolonged inhibition of growth hormone in rats (plasma GH 2 to 6 hours after S.C. injection); conditions: for Plasma GH: 1000 μg/kg S.C.
Experimental: Albino male rats are arranged in two groups (nine rats per group). One group received a subcutaneous (S. C.) injection of the test compound (typically 1 mg/kg.) in saline, and the other group received a S. C. injection of saline alone (control). […] P. injection of sodium pentobarbital, 50 mg/kg. At the end of the experiment, blood samples are taken from each animal by cardiac puncture, and each sample is mixed with Trasylol-EDTA. An aliquot of each sample is assayed for GH by radioimmunoassay. The blood growth hormone concentrations for the animals receiving the test compound are compared by standard statistical methods to the growth hormone concentrations for the control animals. Compounds considered long-acting product a significant decrease in blood growth hormone concentration at a dose of 1 mg/kg. at least two hours after injection.

C[C@@H](O)[C@@H]1NC(=O)[C@H](CCCCN)NC(=O)[C@@H](Cc2c[nH]c3ccccc23)NC(=O)[C@H](Cc2ccccc2)NC(=O)[C@H](Cc2ccccc2)NC(=O)[C@H](Cc2c[nH]cn2)NC(=O)[C@H](CCCNC(=N)N)NC(=O)[C@@H](N)CSSC[C@@H](C(=O)O)NC(=O)[C@@H](Cc2ccc(O)cc2)NC(=O)[C@H]([C@@H](C)O)NC(=O)[C@H](Cc2ccccc2)NC1=O [Example 2, L-Cysteinyl-L-Arginyl-L-Histidyl-L-Phenylalanyl-L-Phenylalanyl-D-Tryptophyl-L-Lysyl-L-Threonyl-L-Phenylalanyl-L-Threonyl-D-Tyrosyl-L-Cysteine Cyclic (1→12) Disulfide] (H-CRHFF[dW]KTFT[dY]C-OH; disulfide 1-12)
GH (growth hormone (GH) [1]; Exp. A, 100 μg/kg S.C., blood 15 min after dose, 5 min after arginine, control 508 ± 13, p < 0.05): 181 ± 47 ng/mL
GH (growth hormone (GH) [1]; Exp. B, 400 μg/kg S.C., control 234 ± 36, p < 0.01): 67 ± 13 ng/mL
Insulin (insulin; Exp. A, 100 μg/kg S.C., control 298 ± 33, p < 0.05): 154 ± 39 μU/ml
Insulin (insulin; Exp. B, 400 μg/kg S.C., control 187 ± 21, p < 0.01): 70 ± 23 μU/ml
Glucagon (glucagon; Exp. A, 100 μg/kg S.C., control 61 ± 8, p < 0.01): 22 ± 7 pg/mL
Glucagon (glucagon; Exp. B, 400 μg/kg S.C., control 41 ± 5, p < 0.01): 9 ± 1 pg/mL
Plasma GH (growth hormone (GH) [2]; Exp. C, 2 hours, control 213 ± 14, p < 0.001): 89 ± 5 ng/mL
Plasma GH (growth hormone (GH) [2]; Exp. C, 4 hours, control 182 ± 12, p < 0.001): 101 ± 13 ng/mL
Plasma GH (growth hormone (GH) [2]; Exp. D, 5 hours, control 337 ± 36, p < 0.05): 230 ± 31 ng/mL
Plasma GH (growth hormone (GH) [2]; Exp. D, 6 hours, control 234 ± 24, not significant): 172 ± 34 ng/mL
Prolonged inhibition of growth hormone / period of action (in words) (growth hormone (GH) [2]; rat, in vivo): shows prolonged inhibition of growth hormone

C[C@@H](O)[C@@H]1NC(=O)[C@H](CCCCN)NC(=O)[C@@H](Cc2c[nH]c3ccccc23)NC(=O)[C@H](Cc2ccccc2)NC(=O)[C@H](Cc2ccccc2)NC(=O)[C@H](CCC(=O)O)NC(=O)[C@H](CCCNC(=N)N)NC(=O)[C@@H](N)CSSC[C@@H](C(=O)O)NC(=O)[C@@H](Cc2ccc(O)cc2)NC(=O)[C@H]([C@@H](C)O)NC(=O)[C@H](Cc2ccccc2)NC1=O [Example 4, L-Cysteinyl-L-Arginyl-L-α-Glutamyl-L-Phenylalanyl-L-Phenylalanyl-D-Tryptophyl-L-Lysyl-L-Threonyl-L-Phenylalanyl-L-Threonyl-D-Tyrosyl-L-Cysteine Cyclic (1→12) Disulfide Triacetate Salt] (H-CREFF[dW]KTFT[dY]C-OH; disulfide 1-12)
GH (growth hormone (GH) [1]; Exp. E, 200 μg/kg S.C., control 354 ± 57, p < 0.01): 81 ± 6 ng/mL
Insulin (insulin; Exp. E, 200 μg/kg S.C., control 336 ± 31, p < 0.01): 128 ± 33 μU/ml
Glucagon (glucagon; Exp. E, 200 μg/kg S.C., control 62 ± 10, not significant): 41 ± 14 pg/mL

C[C@@H](O)[C@@H]1NC(=O)[C@H](CCCCN)NC(=O)[C@@H](Cc2c[nH]c3ccccc23)NC(=O)[C@H](Cc2ccccc2)NC(=O)[C@H](Cc2ccccc2)NC(=O)[C@H](Cc2c[nH]cn2)NC(=O)[C@H](Cc2c[nH]cn2)NC(=O)[C@@H](N)CSSC[C@@H](C(=O)O)NC(=O)[C@@H](CO)NC(=O)[C@H]([C@@H](C)O)NC(=O)[C@H](Cc2ccccc2)NC1=O [Example 6, L-Cysteinyl-L-Histidyl-L-Histidyl-L-Phenylalanyl-L-Phenylalanyl-D-Tryptophyl-L-Lysyl-L-Threonyl-L-Phenylalanyl-L-Threonyl-D-Seryl-L-Cysteine Cyclic (1→12) Disulfide Triacetate Salt] (H-CHHFF[dW]KTFT[dS]C-OH; disulfide 1-12)
GH (growth hormone (GH) [1]; Exp. F, 100 μg/kg S.C., control 363 ± 74, p < 0.01): 83 ± 16 ng/mL
Insulin (insulin; Exp. F, 100 μg/kg S.C., control 75 ± 8, not significant): 60 ± 10 μU/ml
Glucagon (glucagon; Exp. F, 100 μg/kg S.C., control 162 ± 29, p < 0.01): 55 ± 12 pg/mL
